Converted amounts (≈) assume the structure as drawn.
Legend:
[1] = test system: CCRF-CEM human acute lymphoblastic leukemia cells; assay: Cytotoxicity test, MTT colorimetric method, CCRF-CEM; assay type: cell-based
Experimental: (§1) The cytotoxicity test of the obtained major ergostane triterpenoid compounds (zhankuic acid A, zhankuic acid C, antcin C and antcin K) and their stereoisomeric pure compounds (compounds E1 to E6 and E9 to E10) were performed on three leukemia cell lines using MTT (3-(4,5-dimethylthiazol-2-yl)-2,5-diphenyltetrazolium bromide) colorimetric method, and the results were referred to Table 8.

[2] = test system: Molt 4 human acute lymphoblastic leukemia cells; assay: Cytotoxicity test, MTT colorimetric method, Molt 4; assay type: cell-based
Experimental: as §1

[3] = test system: HL 60 human promyelocytic leukemia cells; assay: Cytotoxicity test, MTT colorimetric method, HL 60; assay type: cell-based
Experimental: as §1

[4] = Solubility in solvents for optical rotation measurement; assay type: physicochemical; settings: methanol or ethanol
Experimental: After determining the absolute configuration, we tried to measure the optical rotation aiming to complete the spectral profile for the isolated compounds. In a previous report, the mixture form of zhankuic acid A was dissolved in methanol to measure its optical rotation. […] The solubility of compounds E9 and E10 improved through using acetone-methanol mixture. Considering compounds solubility and the convenience of collecting physical and spectral data using single solvent, pyridine was used in optical rotation experiment. The optical rotation of compound E9 was [α]D^25+32.1 (c 0.70, pyridine), and that of compound E10 was [α]D^25+9.0 (c 0.84, pyridine).

## 3α,4β,7β-trihydroxy-4α-methylergosta-8,24(28)-dien-11-on-25S-26-oic acid [Compound E1]
[1]
  IC50 (μg/ml) CCRF-CEM: >80 µg/mL
[2]
  IC50 (μg/ml) Molt 4: >80 µg/mL
[3]
  IC50 (μg/ml) HL 60: >80 µg/mL

## C=C(CC[C@@H](C)[C@H]1CC[C@H]2C3=C(C(=O)[C@H](O)[C@]12C)[C@@]1(C)CC[C@@H](O)[C@@H](C)C1CC3=O)[C@@H](C)C(=O)O (stereo partly drawn) [Compound E5, 3α,12α-dihydroxy-4α-methylergosta-8,24(28)-dien-7,11-dion-25R-26-oic acid]
[1]
  IC50 (μg/ml) CCRF-CEM: >80 µg/mL
[2]
  IC50 (μg/ml) Molt 4: >80 µg/mL
[3]
  IC50 (μg/ml) HL 60: >80 µg/mL

## C=C(CC[C@@H](C)[C@H]1CC[C@H]2C3=C(C(=O)C[C@]12C)[C@@]1(C)CCC(=O)[C@@H](C)C1CC3=O)[C@@H](C)C(=O)O (stereo partly drawn) [Compound E10, 4α-methylergosta-8,24(28)-dien-3,7,11-trion-25R-26-oic acid]
[1]
  IC50 (μg/ml) CCRF-CEM: 22.90 ± 7.60 µg/mL (≈ 48.9 µM)
[4]
  solubility in single solvent: not sufficient
[2]
  IC50 (μg/ml) Molt 4: 16.44 ± 3.77 µg/mL (≈ 35.1 µM)
[3]
  IC50 (μg/ml) HL 60: 23.32 ± 1.60 µg/mL (≈ 49.8 µM)

## C=C(CC[C@@H](C)[C@H]1CC[C@H]2C3=C(C(=O)[C@H](O)[C@]12C)[C@@]1(C)CC[C@@H](O)[C@@H](C)[C@@H]1CC3=O)C(C)C(=O)O (some centres unmarked) [Zhankuic acid C, zhankuic acid C]
[1]
  IC50 (μg/ml) CCRF-CEM: >80 µg/mL
[2]
  IC50 (μg/ml) Molt 4: >80 µg/mL
[3]
  IC50 (μg/ml) HL 60: >80 µg/mL

## antcin C
[1]
  IC50 (μg/ml) CCRF-CEM: 28.82 ± 6.79 µg/mL
[2]
  IC50 (μg/ml) Molt 4: 55.02 ± 3.34 µg/mL
[3]
  IC50 (μg/ml) HL 60: 47.02 ± 4.45 µg/mL

## C=C(CC[C@@H](C)[C@H]1CC[C@H]2C3=C(C(=O)C[C@]12C)[C@@]1(C)CCC(=O)[C@@H](C)[C@@H]1CC3=O)C(C)C(=O)O (some centres unmarked) [Zhankuic acid A, zhankuic acid A]
[1]
  IC50 (μg/ml) CCRF-CEM: 47.04 ± 6.191 µg/mL (≈ 100 µM)
[2]
  IC50 (μg/ml) Molt 4: 53.23 ± 3.88 µg/mL (≈ 114 µM)
[3]
  IC50 (μg/ml) HL 60: 69.98 ± 18.98 µg/mL (≈ 149 µM)

## C=C(CC[C@@H](C)[C@H]1CC[C@H]2C3=C(C(=O)C[C@]12C)[C@@]1(C)CCC(=O)[C@@H](C)C1C[C@@H]3O)[C@@H](C)C(=O)O (stereo partly drawn) [Compound E4, 7β-hydroxy-4α-methylergosta-8,24(28)-dien-3,11-dion-25R-26-oic acid]
[1]
  IC50 (μg/ml) CCRF-CEM: 27.94 ± 6.44 µg/mL (≈ 59.4 µM)
[2]
  IC50 (μg/ml) Molt 4: 54.28 ± 1.96 µg/mL (≈ 115 µM)
[3]
  IC50 (μg/ml) HL 60: >80 µg/mL

## C=C(CC[C@@H](C)[C@H]1CC[C@H]2C3=C(C(=O)C[C@]12C)[C@@]1(C)CCC(=O)[C@@H](C)C1C[C@@H]3O)[C@H](C)C(=O)O (stereo partly drawn) [Compound E3, 7β-hydroxy-4α-methylergosta-8,24(28)-dien-3,11-dion-25S-26-oic acid]
[1]
  IC50 (μg/ml) CCRF-CEM: 30.681 ± 5.30 µg/mL (≈ 65.2 µM)
[2]
  IC50 (μg/ml) Molt 4: 77.04 ± 2.78 µg/mL (≈ 164 µM)
[3]
  IC50 (μg/ml) HL 60: >80 µg/mL

## C=C(CC[C@@H](C)[C@H]1CC[C@H]2C3=C(C(=O)[C@H](O)[C@]12C)[C@@]1(C)CC[C@@H](O)[C@@H](C)C1CC3=O)[C@H](C)C(=O)O (stereo partly drawn) [Compound E6, 3α,12α-dihydroxy-4α-methylergosta-8,24(28)-dien-7,11-dion-25S-26-oic acid]
[1]
  IC50 (μg/ml) CCRF-CEM: >80 µg/mL
[2]
  IC50 (μg/ml) Molt 4: >80 µg/mL
[3]
  IC50 (μg/ml) HL 60: >80 µg/mL

## antcin K
[1]
  IC50 (μg/ml) CCRF-CEM: >80 µg/mL
[2]
  IC50 (μg/ml) Molt 4: >80 µg/mL
[3]
  IC50 (μg/ml) HL 60: >80 µg/mL

## C=C(CC[C@@H](C)[C@H]1CC[C@H]2C3=C(C(=O)C[C@]12C)[C@@]1(C)CC[C@@H](O)[C@](C)(O)[C@@H]1C[C@@H]3O)[C@@H](C)C(=O)O [Compound E2, 3α,4β,7β-trihydroxy-4α-methylergosta-8,24(28)-dien-11-on-25R-26-oic acid]
[1]
  IC50 (μg/ml) CCRF-CEM: >80 µg/mL
[2]
  IC50 (μg/ml) Molt 4: >80 µg/mL
[3]
  IC50 (μg/ml) HL 60: >80 µg/mL

## C=C(CC[C@@H](C)[C@H]1CC[C@H]2C3=C(C(=O)C[C@]12C)[C@@]1(C)CCC(=O)[C@@H](C)C1CC3=O)[C@H](C)C(=O)O (stereo partly drawn) [Compound E9, 4α-methylergosta-8,24(28)-dien-3,7,11-trion-25S-26-oic acid]
[1]
  IC50 (μg/ml) CCRF-CEM: 21.99 ± 7.91 µg/mL (≈ 46.9 µM)
[4]
  solubility in single solvent: not sufficient
[2]
  IC50 (μg/ml) Molt 4: 42.16 ± 2.33 µg/mL (≈ 90 µM)
[3]
  IC50 (μg/ml) HL 60: 54.67 ± 8.14 µg/mL (≈ 117 µM)
